Test results reported in patent US20090054332A1, “THOMBOPOIETIN PEPTIDE CONJUGATES” (CONJUCHEM BIOTECHNOLOGIES, INC., priority 2007, published 2009).
Where no end group is shown, it is not given here. Side-chain parts run from the residue outwards. [ ]: non-standard residue; d: D form. The star is where a group is joined. K(MPA) = lysine carrying the MPA reactive group; Propanoyl(3-maleimido) = O=C1C=CC(=O)N1CCC(=O)*; MPA = maleimido propionic acid reactive group; Aoc = NCCCCCCCC(=O)O

System: Platelet count
Experiment: In vivo potency: platelet count after a single injection in CD-1 mice
Set-up: species or system mouse
Conditions: female CD-1 mice, single intravenous injection, 10 nmol/kg, 6 days postdose vs prior to dosing, n=4/group
Method: Ten to twelve-week old female CD-1 mice were administered with a single injection of the TPO derivatives indicated below at 10 nmol/kg (n=4/group). The DAC™ compounds in Table 4 are variants of TPO peptides modified to include an MPA reactive group, thereby forming an MPA-modified unconjugated peptides. The DAC™ compounds in Table 4 were administered intravenously. Albumin conjugates of the DAC™ compounds (also referred to herein as Preformed Conjugates (PC)) were injected subcutaneously. For each mouse, a blood sample was collected prior to dosing and 6 days postdose via the […]. Platelet counts were measured using an ABC Vet analyzer using standard procedures.
Platelet count fold increases are reported in Table 4 and 5 for MPA-modified TPO peptide and the albumin TPO conjugate, respectively.
For “(reactive group)-GGGGG-IEGPTLRQWLAARA-GGGGGGGG-IEGPTLRQWLAARA ({Propanoyl(3-maleimido)}-GGGGGIEGPTLRQWLAARAGGGGGGGGIEGPTLRQWLAARA) [MPA-modified form of SEQ ID NO: 168, unconjugated DAC compound]”, the “Platelet Count Fold Increase” value was 5.1 fold. In the case of “(reactive group)-GGGGG-IEGPTLRQWLAARA-GGGGGGGG-LQGPTLRAWRAGMA ({Propanoyl(3-maleimido)}-GGGGGIEGPTLRQWLAARAGGGGGGGGLQGPTLRAWRAGMA) [MPA-modified form of SEQ ID NO: 185, unconjugated DAC compound]”, the “Platelet Count Fold Increase” value is reported as under 3 fold. With “Ac-ARAALWQRLTPGEI-GGGGGGGG-ARAALWQRLTPGEI-K(OA-reactive group) (Ac-ARAALWQRLTPGEIGGGGGGGGARAALWQRLTPGEIK([Aoc-Propanoyl(3-maleimido)])) [MPA-modified form of SEQ ID NO: 127, unconjugated DAC compound]” the “Platelet Count Fold Increase” value was under 3 fold. In the case of “(reactive group)-GGGGG-ARAALWQRLTPGEI-GGGGGGGG-IEGPTLRQWLAARA ({Propanoyl(3-maleimido)}-GGGGGARAALWQRLTPGEIGGGGGGGGIEGPTLRQWLAARA) [MPA-modified form of SEQ ID NO: 121, unconjugated DAC compound]”, the “Platelet Count Fold Increase” value is reported as under 3 fold. In the case of “(reactive group)-GGGGG-ARAALWQRLTPGEI-GGGGGGGG-ARAALWQRLTPGEI ({Propanoyl(3-maleimido)}-GGGGGARAALWQRLTPGEIGGGGGGGGARAALWQRLTPGEI) [MPA-modified form of SEQ ID NO: 125, unconjugated DAC compound]”, the “Platelet Count Fold Increase” value is reported as under 3 fold. For “IEGPTLRQWLAARA-GGGGGGGG-IEGPTLRQWLAARA-OA-OA-K-(reactive group) (IEGPTLRQWLAARAGGGGGGGGIEGPTLRQWLAARA-{Aoc-Aoc-K(MPA)}) [MPA-modified form of SEQ ID NO: 169, unconjugated DAC compound]”, the “Platelet Count Fold Increase” value was 4.4 fold. With “(reactive group)-GGGGG-LQGPTLRAWRAGMA-GGGGGGGG-IEGPTLRQWLAARA ({Propanoyl(3-maleimido)}-GGGGGLQGPTLRAWRAGMAGGGGGGGGIEGPTLRQWLAARA) [MPA-modified form of SEQ ID NO: 184, unconjugated DAC compound]” the “Platelet Count Fold Increase” value was under 3 fold. With “IEGPTLRQWLAARA-GGGGGGGG-IEGPTLRQWLAARA-K-OA-OA-(reactive group) (IEGPTLRQWLAARAGGGGGGGGIEGPTLRQWLAARAK-{Aoc-Aoc-MPA}; not fully specified) [MPA-modified form of SEQ ID NO: 170, unconjugated DAC compound]” the “Platelet Count Fold Increase” value was 4.7 fold. For “(reactive group)-GGGGG-IEGPTLRQWLAARA-GGGGGGGG-ARAALWQRLTPGEI ({Propanoyl(3-maleimido)}-GGGGGIEGPTLRQWLAARAGGGGGGGGARAALWQRLTPGEI) [MPA-modified form of SEQ ID NO: 117, unconjugated DAC compound]”, the “Platelet Count Fold Increase” value was under 3 fold. With “LQGPTLRAWRAGMA-GGGGGGGG-IEGPTLRQWLAARA-(OA)-K-(reactive group) (LQGPTLRAWRAGMAGGGGGGGGIEGPTLRQWLAARA-{Aoc-K(MPA)}) [MPA-modified form of SEQ ID NO: 191, unconjugated DAC compound]” the “Platelet Count Fold Increase” value was under 3 fold. For “IEGPTLRQWLAARA-GGGGGGGG-IEGPTLRQWLAARA-(OA)-K-(reactive group) (IEGPTLRQWLAARAGGGGGGGGIEGPTLRQWLAARA-{Aoc-K(MPA)}) [MPA-modified form of SEQ ID NO: 190, unconjugated DAC compound]”, the “Platelet Count Fold Increase” value was 5.0 fold. In the case of “Ac-ARAALWQRLTPGEI-GGGGGGGG-IEGPTLRQWLAARAI-K(OA-reactive group) (Ac-ARAALWQRLTPGEIGGGGGGGGIEGPTLRQWLAARAIK([Aoc-Propanoyl(3-maleimido)])) [MPA-modified form of SEQ ID NO: 123, unconjugated DAC compound]”, the “Platelet Count Fold Increase” value is reported as under 3 fold.

Same assay, conditions: female CD-1 mice, single subcutaneous injection of preformed albumin conjugate, 10 nmol/kg, 6 days postdose vs prior to dosing, n=4/group
For “Albumin-conjugate of SEQ ID NO: 168: Preformed albumin conjugate (PC) of the MPA-modified TPO peptide of SEQ ID NO: 168 ({Propanoyl(3-maleimido)}-GGGGGIEGPTLRQWLAARAGGGGGGGGIEGPTLRQWLAARA; also: MPA-linked preformed albumin conjugate, site not given here)”, the “Platelet Count Fold Increase” value was 4.3 fold. In the case of “Albumin-conjugate of SEQ ID NO: 169: Preformed albumin conjugate (PC) of the MPA-modified TPO peptide of SEQ ID NO: 169 (IEGPTLRQWLAARAGGGGGGGGIEGPTLRQWLAARA-{Aoc-Aoc-MPA}; also: MPA-linked preformed albumin conjugate, site not given here)”, the “Platelet Count Fold Increase” value is reported as 3.8 fold. For “Albumin-conjugate of SEQ ID NO: 170: Preformed albumin conjugate (PC) of the MPA-modified TPO peptide of SEQ ID NO: 170 (IEGPTLRQWLAARAGGGGGGGGIEGPTLRQWLAARAK[Aoc]; not fully specified; printed as IEGPTLRQWLAARA-GGGGGGGG-IEGPTLRQWLAARA-K-OA-; also: MPA-linked preformed albumin conjugate, site not given here)”, the “Platelet Count Fold Increase” value was 4.4 fold.

System: not given
Experiment: not given
Conditions: phase I trials, adult and pediatric populations; cited from earlier work
In the case of “rhTPO: full length, glycosylated molecule known as recombinant human thrombopoietin”, the Safety of administration is given as “safe administration”.
